Test results reported in patent publication US8598132B2, “Glycosylated indolocarbazoles, method for obtaining same and uses thereof” (Universidad de Oviedo, priority 2008, dated 2013).

Key:
MDA-MB-231 (breast) = experiment: SRB anti-tumour (growth inhibition) assay, MDA-MB-231; format: cell-based; conditions: Homo sapiens, 48 h exposure, read-out: GI50 (concentration inhibiting 50% of cell growth)
Method: The compounds generated were tested against a series of cell lines from tumours. It quantitatively determined the cell growth and the viability, using a colorimetric assay type, using the reaction with sulforhodamine B (SRB), according to the technique described by Faircloth et al. (Journal of Tissue and Culture Methods 1988, 11, 201-205).
96-well microtitre plates are inoculated with cells (5×10^3 cells per well) in aliquots of 195 μl of medium, incubating them during 18 h, in a medium without added compound, to allow the cells to adhere to the surface. Next, the compounds to be tested are added, in samples of 5 μl, at a range of concentrations of 10 to 10^−8 μg/ml, dissolved in DMSO/EtOH (0.2% in PS buffer). After 48 h exposure, the anti-tumour effect is measured using the Sulforhodamine B (SRB) technique: the cells are fixed adding 50 μl of cold […] (50%) (w/v) and it is incubated for 60 min. at 4° C. The plates are washed with deionized water and dried. 100 μl of SRB solution (0.4% w/v in 1% acetic acid) to each well and it is incubated during 10 min. at ambient temperature. The non-bound SRB is eliminated, washing with 1% acetic acid. The plates are air dried and the bound colorant is dissolved with Tris buffer. The optical densities are read in an automatic plate spectrophotometer reader at a wavelength of 490 nm.
For the compounds of formula (III), (IV), (V), (VI), (VII), (VIII), (IX) and the compounds of formula (XII), (XIII), (XIV), (XV), (XVI) and (XVIII).

FGFR1 = biological target: T1, FGFR1 (Homo sapiens, UniProt P11362); experiment: LabChip (Caliper) kinase assay, FGFR1; format: biochemical; conditions: for inhibition at 0.01 µM: compound at 10 nM; for inhibition at 0.01 µM / inhibition at 0.1 µM: read-out: remaining kinase activity (in %) / percentage of inhibition; for inhibition at 0.1 µM: compound at 100 nM; for IC50: ATP at Km, read-out: CI50 (the source's name)
T1 construct: purchased Upstate
Method: The analysis of kinase activity described here was performed using LabChip (Caliper Life Sciences), specifically the Caliper LC3000 and the EZ Reader II instruments.
The kinase assay used measures the conversion of a fluorescent peptide (substrate) to a phosphorylated product. The reaction mixture, in a microplate well, is introduced by a capillary in a chip where the non-phosphorylated substrate and the phosphorylated product are separated by […]. The intensity of the fluorescent signal over time is related to the reaction progress. The phosphorylated product migrates quicker than the non-phosphorylated substrate and the signals of the two forms of the peptide appear as differentiated peaks. The Caliper determines the peak height and calculates the ratio of product to the peak sum (P/(P+S)). This value is used to compare wells with compounds and wells with controls and thus determine the % of inhibition for the given product.
The followings kinases were used for the enzymatic inhibition studies, between brackets the value of the Michaelis-Menten constant, Km, of the ATP (Adenosine triphosphate) for each kinase, in μM: obtained from Carna Biosciences: MAPKAPK2 (4.6), AurA (3.6), AurB (5), PKCζ (3.8), RSK1 (23.3), PRAK (5), Erk1 (33.4), PKD2 (32.1), CK1d (16.3), CHK1 (33), ABL (61.7), FYN (36), LYNa (17), CHK2 (57.8), MET (79.5), LCK (28.5), SRC (38), GSK3β (7.3), Erk2 (62.1), PKACα (1.7), AKT2 (186.1), INSR (871.8), p38a (396.5), AKT1(48), MSK1 (21.2), PKCβ2 (84.8), ROCK2 (3.3), PIM2 (4.9), AMPK (38.6), KDR (164.8), IRAK4 (196.5), SGK1 (121.8), SYK (33.5); obtained from Invitrogen: CDK2 (57.6), BTK (123), HGK (80); obtained from Upstate: MST2 (36.6), PKGα (16), PAK2 (1.9), IGF1R (320), FGFR1 (171), MARK1 (33), CAMK2δ (22.4), c-TAK1 (66), DYRK1a (18.1), CaMK4 (3.9), FLT3 (350), c-Raf (6.2), P70S6K (95).
The compounds were dissolved in 100% DMSO and were diluted at 25 times the final concentration desired for the assay. In the case of the determination of Cl50, serial dilutions were made to reach eight concentrations and give rise to the inhibition curve. 1 μL of each concentration is transferred, in duplicate to a 384-well microplate. 12 μL of enzymatic buffer is added to each well containing purified kinase (several suppliers as indicated above), 100 mM HEPES, pH 7.5, 1 mM DTT (Calbiochem), 0.002% Brij-35 (Sigma) and also in presence of 10 mM MgCl2 as cofactor, except for INSR and IRAK4 wherein 10 mM MnCl2 is used instead of MgCl2. For the kinases CAMK26 and CAMK4, 1 mM CaCl2 and 6.7 μg/mL of calmodulin are also added. For KDR kinase, 0.05% of the CHAPSO detergent is added. For the c-Raf kinase, 10 mM MnCl2 is added. For PKCβ2 0.02 μg/mL of PS/PMA is added. For PKGα se 10 μM of cGMP (cyclic guanosine monophosphate) is added. The compound and the enzyme are left for 15 minutes preincubation and, then, the following are added to each well: 12 μL of peptide buffer/ATP containing 100 mM HEPES, pH 7.5, 1.5 μM peptide marker with fluorescein (specific for the corresponding kinase), ATP (at concentration KM), and 0.002% Brij-35 to start the reaction. Generally, the reactions are incubated for 1-1.5 h at ambient temperature to obtain an adequate conversion (15-40%) of the peptide to the phosphorylated product. The reactions were ended by the addition of 45 μL of buffer containing 0 mM EDTA. The microplates were read by the LabChip 3000 using a 12-channel LabChip. The P/(P+S) values were obtained as described above and the CI50 curves were generated using XIfit.
Table 9a has the 0150 data obtained in pairs of compound-kinase selected from the compounds of formula (VII), (VIII), (IX), (XVI), (XVII) and (XVIII) after taking inhibition measurements at 100 nM and 10 nM. Those couples that provide >70% of inhibition at 10 nM were consider for measuring its IC50. […]

T1 sequence (P11362 22-822, species assumed): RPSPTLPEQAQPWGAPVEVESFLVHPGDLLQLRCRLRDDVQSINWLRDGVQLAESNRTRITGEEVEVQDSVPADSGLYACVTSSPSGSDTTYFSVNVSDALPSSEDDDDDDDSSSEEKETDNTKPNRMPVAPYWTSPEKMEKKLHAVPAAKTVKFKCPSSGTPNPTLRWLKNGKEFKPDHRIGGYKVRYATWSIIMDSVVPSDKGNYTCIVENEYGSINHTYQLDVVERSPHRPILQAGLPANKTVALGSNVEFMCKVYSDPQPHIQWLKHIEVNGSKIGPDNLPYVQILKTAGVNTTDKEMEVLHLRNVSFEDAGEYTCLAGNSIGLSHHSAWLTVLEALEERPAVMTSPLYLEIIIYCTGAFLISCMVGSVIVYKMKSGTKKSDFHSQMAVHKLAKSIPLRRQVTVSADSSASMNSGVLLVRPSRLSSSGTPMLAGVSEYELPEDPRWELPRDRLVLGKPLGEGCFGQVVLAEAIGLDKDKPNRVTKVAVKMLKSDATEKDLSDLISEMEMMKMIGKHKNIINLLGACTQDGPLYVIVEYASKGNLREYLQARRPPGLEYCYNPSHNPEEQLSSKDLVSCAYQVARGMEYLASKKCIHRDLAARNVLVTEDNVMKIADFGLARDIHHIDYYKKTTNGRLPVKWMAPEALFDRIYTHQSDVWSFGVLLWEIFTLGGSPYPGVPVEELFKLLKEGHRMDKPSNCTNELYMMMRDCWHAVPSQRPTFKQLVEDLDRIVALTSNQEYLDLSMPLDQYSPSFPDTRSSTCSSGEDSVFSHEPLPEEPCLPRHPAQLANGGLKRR

With `C[C@H]1O[C@@H](n2c3ccccc3c3c4c(c5c6ccccc6[nH]c5c32)CNC4=O)C[C@@H](O)[C@@H]1O` [formula (XV), N^13-1′-β-D-olivosyl-k252c] as the molecule, how does the GI50 (MDA-MB-231 (breast)) read?
The GI50 was 3.17 µM.

What about the inhibition at 0.01 µM (FGFR1) of the same molecule?
Its inhibition at 0.01 µM is -2%.

And the inhibition at 0.1 µM (FGFR1)?
Its inhibition at 0.1 µM is 7%.

For `C[C@]12O[C@H](C[C@@H](O)[C@H]1O)n1c3ccccc3c3c4c(c5c6ccccc6n2c5c31)CNC4=O` [formula (XVIII), N^12-5′(S)-N^13-1′-(R)-L-digitoxosyl-k252c], which GI50 (MDA-MB-231 (breast)) is on record?
Its GI50 is 1.84 µM.

And the IC50 (FGFR1)?
Its IC50 is greater than 0.1 µM.

For `C[C@]12O[C@H]([C@H](O)[C@H](O)[C@H]1O)n1c3ccccc3c3c4c(c5c6ccccc6n2c5c31)C(=O)NC4=O` [formula (VII), N^12-5′(S)-N^13-1′-(R)-L-rhamnosylarcyriaflavin], which GI50 (MDA-MB-231 (breast)) is on record?
Its GI50 is 1.35 µM.

What about the IC50 (FGFR1) of the same molecule?
Its IC50 is 0.0089 µM.

With `C[C@]12O[C@H]([C@H](O)[C@H](O)[C@H]1O)n1c3ccccc3c3c4c(c5c6ccccc6n2c5c31)CNC4=O` [formula (XVI), N^12-5′(S)-N^13-1′-(R)-L-rhamnosyl-k252c] as the molecule, how does the GI50 (MDA-MB-231 (breast)) read?
The GI50 was 0.59 µM.

`C[C@@H]1O[C@@H](n2c3ccccc3c3c4c(c5c6ccccc6[nH]c5c32)C(=O)NC4=O)C[C@H](O)[C@H]1O` [formula (IV), N^13-1′-β-L-olivosylarcyriaflavin] was tested. Which GI50 (MDA-MB-231 (breast)) did it give?
The GI50 was 14.1 µM.

What about the inhibition at 0.01 µM (FGFR1) of the same molecule?
Its inhibition at 0.01 µM is 3%.

What about the inhibition at 0.1 µM (FGFR1) of the same molecule?
The inhibition at 0.1 µM was 21%.

`C[C@H]1O[C@@H](n2c3ccccc3c3c4c(c5c6ccccc6[nH]c5c32)C(=O)NC4=O)C[C@@H](O)[C@@H]1O` [formula (VI), N^13-1′-β-D-olivosylarcyriaflavin] was tested. Which GI50 (MDA-MB-231 (breast)) did it give?
The GI50 was 2.43 µM.

And the inhibition at 0.01 µM (FGFR1)?
Its inhibition at 0.01 µM is 1%.

And the inhibition at 0.1 µM (FGFR1)?
The inhibition at 0.1 µM was 25%.

With `C[C@@H]1O[C@@H](n2c3ccccc3c3c4c(c5c6ccccc6[nH]c5c32)CNC4=O)C[C@@H](O)[C@H]1O` [formula (XIV), N^13-1′-β-L-digitoxosyl-k252c] as the molecule, how does the GI50 (MDA-MB-231 (breast)) read?
Its GI50 is 2.49 µM.

What about the inhibition at 0.01 µM (FGFR1) of the same molecule?
The inhibition at 0.01 µM was 1%.

What about the inhibition at 0.1 µM (FGFR1) of the same molecule?
The inhibition at 0.1 µM was 5%.

Which GI50 (MDA-MB-231 (breast)) does the source give for `C[C@@H]1O[C@@H](n2c3ccccc3c3c4c(c5c6ccccc6[nH]c5c32)CNC4=O)C[C@H](O)[C@H]1O` [formula (XIII), N^13-1′-β-L-olivosyl-k252c] here?
Its GI50 is 1.43 µM.

And the inhibition at 0.01 µM (FGFR1)?
Its inhibition at 0.01 µM is -1%.

What about the inhibition at 0.1 µM (FGFR1) of the same molecule?
The inhibition at 0.1 µM was 7%.

`C[C@@H]1O[C@@H](n2c3ccccc3c3c4c(c5c6ccccc6[nH]c5c32)C(=O)NC4=O)C[C@@H](O)[C@H]1O` [formula (V), N^13-1′-β-L-digitoxosylarcyriaflavin] was tested. Which GI50 (MDA-MB-231 (breast)) did it give?
The GI50 was 4.19 µM.

And the inhibition at 0.01 µM (FGFR1)?
Its inhibition at 0.01 µM is 7%.

What about the inhibition at 0.1 µM (FGFR1) of the same molecule?
The inhibition at 0.1 µM was 34%.

Which GI50 (MDA-MB-231 (breast)) does the source give for `C[C@@H]1O[C@@H](n2c3ccccc3c3c4c(c5c6ccccc6[nH]c5c32)C(=O)NC4=O)[C@H](O)[C@H](O)[C@H]1O` [formula (III), N^13-1′-β-L-rhamnosylarcyriaflavin] here?
Its GI50 is 4.4 µM.

What about the inhibition at 0.01 µM (FGFR1) of the same molecule?
The inhibition at 0.01 µM was 3%.

What about the inhibition at 0.1 µM (FGFR1) of the same molecule?
The inhibition at 0.1 µM was 4%.

Which GI50 (MDA-MB-231 (breast)) does the source give for `C[C@@H]1O[C@@H](n2c3ccccc3c3c4c(c5c6ccccc6[nH]c5c32)CNC4=O)[C@H](O)[C@H](O)[C@H]1O` [formula (XII), N^13-1′-β-L-rhamnosyl-k252c] here?
The GI50 was 1.97 µM.

And the inhibition at 0.01 µM (FGFR1)?
Its inhibition at 0.01 µM is 1%.

And the inhibition at 0.1 µM (FGFR1)?
Its inhibition at 0.1 µM is 5%.

With `C[C@]12O[C@H](C[C@H](O)[C@H]1O)n1c3ccccc3c3c4c(c5c6ccccc6n2c5c31)C(=O)NC4=O` [formula (VIII), N^12-5′(S)-N^13-1′-(R)-L-olivosylarcyriaflavin] as the molecule, how does the GI50 (MDA-MB-231 (breast)) read?
The GI50 was 7.5 µM.

What does the source list for `C[C@]12O[C@H](C[C@@H](O)[C@H]1O)n1c3ccccc3c3c4c(c5c6ccccc6n2c5c31)C(=O)NC4=O` [formula (IX), N^12-5′(S)-N^13-1′-(R)-L-digitoxosylarcyriaflavin]?
GI50 (MDA-MB-231 (breast)): 8.16 µM; IC50 (FGFR1): > 0.01 µM

Which GI50 (MDA-MB-231 (breast)) does the source give for `C[C@]12O[C@H](C[C@H](O)[C@H]1O)n1c3ccccc3c3c4c(c5c6ccccc6n2c5c31)CNC4=O` [formula (XVII), N^12-5′(S)-N^13-1′-(R)-L-olivosyl-k252c] here?
Its GI50 is 1.05 µM.

And the IC50 (FGFR1)?
Its IC50 is greater than 0.01 µM.
